Patent US4372964A, “Antiinflammatory 4,5-diaryl-1H-imidazole-2-methanols” (E. I. Du Pont de Nemours and Company, priority 1981, dated 1983)
Where two headings read alike, the source gives them in different places.

How the values were obtained:
[1] = system: adjuvant-induced arthritis in rats; assay: Established Adjuvant-Induced Arthritis in Rats; format: in vivo, Lewis (Wistar) male rats; conditions: Rattus norvegicus; for ED50: oral once daily 7 days (days 14-20), decrease from control paw volume, day 21; for inhibition in vivo at 9 mg/kg: Table 3, dose 9 mg/kg
[2] = system: phenylquinone writhing in mice; assay: Phenylquinone Writhing Test; format: in vivo, female white mice; conditions: Mus musculus, oral, observed from 30 minutes after dosing for 10 minutes
Description: Aqueous (0.10% phenyl-p-benzoquinone) phenylquinone was injected intraperitoneally at 24 minutes later using 0.20 ml per mouse.

[3] = 168 h, Table 4, dose 25 mg/kg, oral once daily 7 days, read-out: Adjuvant Arthritis, percent reduction in paw volume at the indicated dose
[4] = 168 h, Table 3, dose 50 mg/kg, oral once daily 7 days, read-out: Adjuvant Arthritis, percent reduction in paw volume at the indicated dose
[5] = 168 h, oral once daily 7 days, read-out: Adjuvant Arthritis, percent reduction in paw volume at the indicated dose
[6] = 168 h, Table 3, dose 25 mg/kg, oral once daily 7 days, read-out: Adjuvant Arthritis, percent reduction in paw volume at the indicated dose

SMILES: OC(c1nc(-c2ccccc2)c(-c2ccccc2)[nH]1)(C(F)(F)F)C(F)(F)F [Example 20]
- ED50 ([1]; Table 3, Formula I): 27 mg/kg
- ED50 ([2]; Table 3, Formula I): 57 mg/kg

SMILES: CC(=O)c1nc(-c2ccc(F)cc2)c(-c2ccc(F)cc2)[nH]1 [Example 41]
- inhibition in vivo at 25 mg/kg [1, 3]: 0%

SMILES: COc1ccc(-c2nc(C(C)(C)O)[nH]c2-c2ccc(OC)cc2)cc1 [Example 30, 4,5-bis(4-methoxyphenyl)-α,α-dimethyl-1H-imidazole-2-methanol]
- ED50 ([1]; Table 3, Formula I): 6.4 mg/kg
- ED50 ([2]; Table 3, Formula I): 4.6 mg/kg

SMILES: OC(c1nc(-c2ccccc2)c(-c2ccc(Cl)c(Cl)c2)[nH]1)(C(F)(F)F)C(F)(F)F [Example 17]
- inhibition in vivo at 50 mg/kg [1, 4]: 21%

SMILES: OC(c1nc(-c2ccc(F)cc2)c(-c2ccc(F)cc2)[nH]1)(C(F)(F)F)C(F)(F)F [Example 1, 4,5-Bis(4-fluorophenyl)-α,α-di(trifluoromethyl)-1H-imidazole-2-methanol]
- ED50 ([1]; Table 3, Formula I): 8 mg/kg
- ED50 ([2]; Table 3, Formula I): > 108 mg/kg

SMILES: COc1ccc(-c2nc(C(C)(O)C(F)(F)C(F)(F)F)[nH]c2-c2ccc(OC)cc2)cc1 (stereo not drawn) [Example 29, 4,5-bis(4-methoxyphenyl)-α-methyl-α-pentafluoroethyl-1H-imidazole-2-methanol]
- ED50 ([1]; Table 3, Formula I): 15 mg/kg
- ED50 ([2]; Table 3, Formula I): 3.5 mg/kg

SMILES: CSc1ccc(-c2[nH]c(C(C)(O)C(F)(F)F)nc2-c2ccc(F)cc2)cc1 (stereo not drawn) [Example 24]
- inhibition in vivo at 9 mg/kg [1, 5]: 51%
- ED50 ([2]; Table 3, Formula I): 102 mg/kg

SMILES: COc1ccc(-c2nc(C(C)O)[nH]c2-c2ccc(OC)cc2)cc1 (stereo not drawn) [Example 35]
- ED50 ([1]; Table 3, Formula I): 3.6 mg/kg
- ED50 ([2]; Table 3, Formula I): 26 mg/kg

SMILES: O=C(c1nc(-c2ccc(F)cc2)c(-c2ccc(F)cc2)[nH]1)C(F)(F)C(F)(F)F [Example 39, 1-[4,5-bis(4-fluorophenyl)-1H-imidazol-2-yl]-2,2,3,3,3-pentafluoro-1-propanone]
- ED50 ([1]; Table 4, Formula II): 3 mg/kg

SMILES: COc1ccc(-c2nc(C(O)(C(F)(F)Cl)C(F)(F)Cl)[nH]c2-c2ccc(OC)cc2)cc1 [Example 13]
- ED50 ([1]; Table 3, Formula I): 15 mg/kg
- ED50 ([2]; Table 3, Formula I): 135 mg/kg

SMILES: COc1ccc(-c2nc(C(O)C(F)(F)F)n(C)c2-c2ccc(OC)cc2)cc1 (stereo not drawn) [Example 19]
- inhibition in vivo at 27 mg/kg ([1]; 168 h, Table 3, dose 27 mg/kg, oral once daily 7 days, read-out: Adjuvant Arthritis, percent reduction in paw volume at the indicated dose): 0%
- ED50 ([2]; Table 3, Formula I): > 108 mg/kg

SMILES: CSc1ccc(-c2[nH]c(C(=O)C(F)(F)F)nc2-c2ccc(F)cc2)cc1 [Example 37]
- inhibition in vivo at 25 mg/kg [1, 3]: 24%
- ED50 ([2]; Table 4, Formula II): > 108 mg/kg

SMILES: OC(c1nc(-c2ccc(F)cc2)c(-c2cccs2)[nH]1)(C(F)(F)F)C(F)(F)F [Example 14]
- ED50 ([1]; Table 3, Formula I): 90 mg/kg
- ED50 ([2]; Table 3, Formula I): > 108 mg/kg

SMILES: Cn1c(C(C)(C)O)nc(-c2ccc(F)cc2)c1-c1ccc(F)cc1 [Example 26]
- inhibition in vivo at 25 mg/kg [1, 6]: 47%
- ED50 ([2]; Table 3, Formula I): > 108 mg/kg

SMILES: CC(O)(c1nc(-c2ccc(F)cc2)c(-c2ccc(F)cc2)[nH]1)C(F)(F)C(F)(F)F (stereo not drawn) [Example 11, 4,5-Bis(4-Fluorophenyl)-α-methyl-α-/pentafluoroethyl-1H-imidazole-2-methanol]
- ED50 ([1]; Table 3, Formula I): 1.4 mg/kg
- ED50 ([2]; Table 3, Formula I): > 108 mg/kg

SMILES: CC(=O)OC(c1nc(-c2ccc(F)cc2)c(-c2ccc(F)cc2)[nH]1)(C(F)(F)F)C(F)(F)F [Example 25]
- ED50 ([1]; Table 3, Formula I): 13 mg/kg
- ED50 ([2]; Table 3, Formula I): > 108 mg/kg

SMILES: CCC(O)(c1nc(-c2ccc(F)cc2)c(-c2ccc(F)cc2)[nH]1)C(F)(F)F (stereo not drawn) [Example 31, 4,5-bis(4-fluorophenyl)-α-ethyl-α-trifluoromethyl-1H-imidazole-2-methanol]
- ED50 ([1]; Table 3, Formula I): 1.7 mg/kg
- ED50 ([2]; Table 3, Formula I): > 108 mg/kg

SMILES: OC(c1nc(-c2ccc(F)cc2)c(-c2ccc(F)cc2)[nH]1)(C(F)F)C(F)(F)F (stereo not drawn) [Example 16, 4,5-bis(4-fluorophenyl)-α-difluoromethyl-α-trifluoromethyl-1H-imidazole-2-methanol]
- ED50 ([1]; Table 3, Formula I): 4.8 mg/kg
- ED50 ([2]; Table 3, Formula I): > 108 mg/kg

SMILES: COc1ccc(-c2nc(C(OC)(C(F)(F)F)C(F)(F)F)[nH]c2-c2ccc(OC)cc2)cc1 [Example 7, 4,5-Bis(4-methoxyphenyl)-2-[1-methoxy-2,2,2-trifluoro-1-(trifluoromethyl)ethyl]-1H-imidazole]
- ED50 ([1]; Table 3, Formula I): 4.4 mg/kg
- ED50 ([2]; Table 3, Formula I): 32 mg/kg

SMILES: COc1ccc(-c2nc(C(O)(C(F)F)C(F)(F)F)[nH]c2-c2ccc(OC)cc2)cc1 (stereo not drawn) [Example 15, 4,5-bis(4-methoxyphenyl)-α-difluoromethyl-α-trifluoromethyl-1H-imidazole-2-methanol]
- ED50 ([1]; Table 3, Formula I): 3 mg/kg
- ED50 ([2]; Table 3, Formula I): 1.4 mg/kg

SMILES: COc1ccc(-c2nc(C(O)(C(F)(F)F)C(F)(F)F)n(C)c2-c2ccc(OC)cc2)cc1 [Example 4, 4,5-Bis(4-methoxyphenyl)-1-methyl-α,α-(trifluoromethyl)-1H-imidazole-2-methanol]
- ED50 ([1]; Table 3, Formula I): 15 mg/kg
- ED50 ([2]; Table 3, Formula I): > 135 mg/kg

SMILES: CCC(C)(O)c1nc(-c2ccc(OC)cc2)c(-c2ccc(OC)cc2)[nH]1 (stereo not drawn) [Example 34]
- inhibition in vivo at 50 mg/kg [1, 4]: 82%
- ED50 ([2]; Table 3, Formula I): 5.2 mg/kg

SMILES: OC(c1nc(-c2ccc(F)cc2)c(-c2ccc(F)cc2)[nH]1)C(F)(F)C(F)(F)F (stereo not drawn) [Example 23]
- ED50 ([1]; Table 3, Formula I): 6.8 mg/kg
- ED50 ([2]; Table 3, Formula I): 24 mg/kg

SMILES: COc1ccc(-c2nc(C(C)(O)C(F)(F)F)[nH]c2-c2ccc(OC)cc2)cc1 (stereo not drawn) [Example 18, 4,5-bis(4-methoxyphenyl)-α-methyl-α-trifluoromethyl-1H-imidazole-2-methanol]
- ED50 ([1]; Table 3, Formula I): 5.4 mg/kg
- ED50 ([2]; Table 3, Formula I): 2.2 mg/kg

SMILES: OC(c1nc(-c2ccc(Cl)cc2)c(-c2ccc(Cl)cc2)[nH]1)(C(F)(F)F)C(F)(F)F [Example 22]
- inhibition in vivo at 9 mg/kg [1, 5]: 37%
- ED50 ([2]; Table 3, Formula I): > 135 mg/kg

SMILES: O=C(c1nc(-c2ccc(F)cc2)c(-c2ccc(F)cc2)[nH]1)C(F)(F)F [Example 8, 1-[4,5-Bis(4-fluorophenyl)-1H-imidazol-2-yl]-2,2,2-trifluoro-1-ethanone]
- inhibition in vivo at 25 mg/kg [1, 3]: 49%
- ED50 ([2]; Table 4, Formula II): > 108 mg/kg

SMILES: COc1ccc(-c2nc(C(OC(C)=O)(C(F)(F)F)C(F)(F)F)n(C)c2-c2ccc(OC)cc2)cc1 [Example 5, 4,5-Bis(4-methoxyphenyl)-1-methyl-α,α-di(trifluoromethyl)-1H-imidazole-2-methanol, Acetate]
- inhibition in vivo at 25 mg/kg [1, 6]: 45%
- ED50 ([2]; Table 3, Formula I): > 108 mg/kg

SMILES: CC(O)(c1nc(-c2ccc(F)cc2)c(-c2ccc(F)cc2)[nH]1)C(F)(F)F (stereo not drawn) [Example 3, 4,5-Bis(4-fluorophenyl)-α-methyl-α-trifluoromethyl-1H-imidazole-2-methanol]
- ED50 ([1]; Table 3, Formula I): 1.8 mg/kg
- ED50 ([2]; Table 3, Formula I): 39 mg/kg

SMILES: COc1ccc(-c2nc(C(O)C(F)(F)F)[nH]c2-c2ccc(OC)cc2)cc1 (stereo not drawn) [Example 10, 4,5-Bis(4-methoxyphenyl)-α-(trifluoromethyl)-1H-imidazole-2-methanol]
- ED50 ([1]; Table 3, Formula I): 45 mg/kg
- ED50 ([2]; Table 3, Formula I): 1.9 mg/kg

SMILES: COc1ccc(-c2nc(C(C)(O)C3CC3)[nH]c2-c2ccc(OC)cc2)cc1 (stereo not drawn) [Example 33]
- inhibition in vivo at 9 mg/kg [1, 5]: 46%
- ED50 ([2]; Table 3, Formula I): 5.6 mg/kg

SMILES: COc1ccc(-c2nc(C(=O)C(F)(F)C(F)(F)F)[nH]c2-c2ccc(OC)cc2)cc1 [Example 38, 1-[4,5-bis(4-methoxyphenyl)-1H-imidazol-2-yl]-2,2,3,3,3-pentafluoro-1-propanone]
- inhibition in vivo at 25 mg/kg [1, 3]: 62%
- ED50 ([2]; Table 4, Formula II): 2.3 mg/kg

SMILES: COc1ccc(-c2nc(C(C)=O)[nH]c2-c2ccc(OC)cc2)cc1 [Example 40]
- inhibition in vivo at 50 mg/kg ([1]; 168 h, Table 4, dose 50 mg/kg, oral once daily 7 days, read-out: Adjuvant Arthritis, percent reduction in paw volume at the indicated dose): 56%
- ED50 ([2]; Table 4, Formula II): > 135 mg/kg

SMILES: CC(C)(O)c1nc(-c2ccc(F)cc2)c(-c2ccc(F)cc2)[nH]1 [Example 28]
- inhibition in vivo at 50 mg/kg [1, 4]: 48%
- ED50 ([2]; Table 3, Formula I): > 108 mg/kg

SMILES: CCOC(=O)OC(c1nc(-c2ccc(OC)cc2)c(-c2ccc(OC)cc2)n1C)(C(F)(F)F)C(F)(F)F [Example 6, 4,5-Bis(4-methoxyphenyl)-1-methyl-α,α-di(trifluoromethyl)-1H-imidazole-2-methanol, Ethylcarbonate]
- inhibition in vivo at 45 mg/kg ([1]; 168 h, Table 3, dose 45 mg/kg, oral once daily 7 days, read-out: Adjuvant Arthritis, percent reduction in paw volume at the indicated dose): 17%
- ED50 ([2]; Table 3, Formula I): > 108 mg/kg

SMILES: COc1ccc(-c2nc(C(O)(C(F)(F)F)C(F)(F)F)[nH]c2-c2ccc(OC)cc2)cc1 [Example 2, 4,5-Bis(4-methoxyphenyl)-α,α-di(trifluoromethyl)-1H-imidazole-2-methanol]
- ED50 ([1]; Table 3, Formula I): 5 mg/kg
- ED50 ([2]; Table 3, Formula I): 2.7 mg/kg

SMILES: OC(c1nc(-c2ccc(F)cc2)c(-c2ccc(F)cc2)[nH]1)C(F)(F)F (stereo not drawn) [Example 27]
- ED50 ([1]; Table 3, Formula I): 14 mg/kg
- ED50 ([2]; Table 3, Formula I): > 108 mg/kg

SMILES: COc1ccc(-c2nc(C(O)(C(F)(F)F)C(F)(F)Cl)[nH]c2-c2ccc(OC)cc2)cc1 (stereo not drawn) [Example 12]
- ED50 ([1]; Table 3, Formula I): 6 mg/kg
- ED50 ([2]; Table 3, Formula I): 42 mg/kg

SMILES: COc1ccc(-c2nc(C(=O)C(F)(F)F)[nH]c2-c2ccc(OC)cc2)cc1 [Example 9, 1-[4,5-Bis(4-methoxyphenyl)-1H-imidazol-2-yl]2,2,2-trifluoro-1-ethanone]
- ED50 ([1]; Table 4, Formula II): 25 mg/kg
- ED50 ([2]; Table 4, Formula II): > 108 mg/kg

SMILES: CSc1ccc(-c2[nH]c(C(O)(C(F)(F)F)C(F)(F)F)nc2-c2ccc(F)cc2)cc1 [Example 21]
- inhibition in vivo at 15 mg/kg ([1]; 168 h, Table 3, dose 15 mg/kg, oral once daily 7 days, read-out: Adjuvant Arthritis, percent reduction in paw volume at the indicated dose): 61%

SMILES: CCCC(O)(c1nc(-c2ccc(F)cc2)c(-c2ccc(F)cc2)[nH]1)C(F)(F)F (stereo not drawn) [Example 32]
- ED50 ([1]; Table 3, Formula I): 8.6 mg/kg
- ED50 ([2]; Table 3, Formula I): > 108 mg/kg

SMILES: COc1ccc(-c2nc(C(=O)C(F)(F)F)n(C)c2-c2ccc(OC)cc2)cc1 [Example 36, 1-[4,5-bis(4-methoxyphenyl)-1-methyl-1H-imidazol-2-yl]-2,2,2-trifluoro-1-ethanone]
- inhibition in vivo at 25 mg/kg [1, 3]: 28%
- ED50 ([2]; Table 4, Formula II): > 108 mg/kg
